Target: T1, AtD14 fused to firefly luciferase (D14::LUC) (Arabidopsis thaliana, UniProt Q9SQR3)
T1 construct: a pDONOR207 carrying the D14 promoter fused to the D14 CDS; expressed in transfected cells
T1 sequence (Q9SQR3 1-267): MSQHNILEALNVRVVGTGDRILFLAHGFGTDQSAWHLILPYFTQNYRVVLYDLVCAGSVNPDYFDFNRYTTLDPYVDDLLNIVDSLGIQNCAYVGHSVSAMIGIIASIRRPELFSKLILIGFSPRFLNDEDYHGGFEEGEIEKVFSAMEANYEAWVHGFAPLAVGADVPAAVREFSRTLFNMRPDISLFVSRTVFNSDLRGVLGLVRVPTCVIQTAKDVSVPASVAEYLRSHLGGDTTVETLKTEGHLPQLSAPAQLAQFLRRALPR
Assay: Luminometer (luciferase) assay: D14::LUC degradation in transgenic Arabidopsis seedlings
Type: in vivo
Conditions: for D14 degradation in the luciferase assay: 0.01–100 μM range, racemic mixtures
Experimental: A binary D14p::D14::LUC vector was obtained by LR-recombination (Invitrogen) of a pDONOR207 carrying the D14 promoter fused to the D14 CDS ([Chevalier et al., 2014]) in pGWB435 ([Nakagawa et al., 2007]). Transgenic D14::D14::LUC Arabidopsis plants were generated by agroinfiltration of Col-0 plants using the floral dip method ([Clough and Bent, 1998]). Seeds were surface-sterilized with an 8% aqueous solution of commercial bleach in distilled water for 5 min and rinsed five times with sterile distilled water. Sterile seeds were plated on MS medium (pH 5.8) ([Murashige and Skoog, 1962]) without sucrose solidified with 1.2% Agar, and kept at 4 °C for 3 d (stratification). Seeds were then incubated for 7 d in a growth chamber at 25 °C and a photoperiod of 16 h light/8 h dark. SL analogues and mimics (Figs 1, 2) were accurately weighed and dissolved in acetone at 10^–2 M. Five different concentrations (10^–4 M, 10^–5 M, 10^–6 M, 10^–7 M, 10^–8 M) were prepared by 1:10 serial dilutions in liquid MS medium, together with blank controls containing corresponding water and acetone volumes in the medium. D-Luciferin (potassium salt) stock was prepared at 25 mg ml^–1 in DMSO, aliquoted and stored at –80 °C until use; all other solutions were prepared just before the assay. Using tweezers, 7-d-old Arabidopsis seedlings were placed in a 96-well microtiter plate with their cotyledons facing up (one seedling per well, in 170 µl of liquid MS medium), and 15 µl of luciferin (0.125 mg ml^–1, diluted 1:200 in MS from stock) was added to each well, corresponding to 1.875 µg. The plate was covered with a transparent film with a hole poked above each well to allow for gas exchange. Measurements were taken every 15 min in a multimode reader (LB942 Tristar2 S, Berthold Technologies) for the following 24 h; the signal was allowed to stabilize for 2–3 h in the light before treatments were started by adding 15 µl per well of the different SLs in MS medium, thus reaching a final volume in each well of 200 µl and 9.4 µg ml^– of luciferin. Appropriate blank controls were added as well. Each treatment was applied to a minimum of 16 wells (seedlings), each of which was measured individually over time. The percentage efficacy of each compound molecule was calculated 6 h after treatment as a function of the decrease in D14::LUC-emitted luminescence with respect to (+)-GR24 1 µM (i.e. GR24^5DS), assuming that the latter, minus the drift of the corresponding blank control, had 100% efficacy. For calibration purposes, SL analogues that had already been characterized, namely (±)-ST23b, (±)-EGO10, and (±)-EDOT ([Prandi et al., 2011]), were tested across the same concentration range, along with (±)-strigol (Chiralix, NL). The half maximal-effective concentration (EC50) for (+)-GR24 was calculated by linear regression fitting of the data (n=5, with at least three individual seedlings and values being pooled for each replicate) at the different concentrations, minus the values for acetone-treated samples (negative controls) and normalized in relation to (+)-GR24 0.01 μM, which was set to 0%. Confidence intervals at 95% were used to express errors of the means.
D14 is a target for proteasome-dependent destruction upon interaction with its ligand(s), which explains why fluorescence of D14::GFP fusion proteins is quenched upon SL treatment in transgenic Arabidopsis ([Chevalier et al., 2014]). We exploited this molecular network to implement a quantitative activity assay that inversely correlated luminescence to perception of SL-related molecules in transgenic Arabidopsis expressing D14::LUC under the control of the D14 endogenous promoter. […] We then used the assay to test various SLs in the same range, namely strigol as an example of natural SLs; ST23b, EGO10, and EDOT (Fig. 1, all used as rac mixtures) as examples of active SL analogues; and the new set of SL-D-lactams rac-1–9 (Fig. 2).
Fig. 4. Luciferase assay. […]

D14 degradation in the luciferase assay	Activity in the luciferase assay at 10 μM (10 μM)	Activity in the luciferase assay at 100 μM (100 μM)	Compound
almost inactive			CC1=C[C@H](O/C=C2/C(=O)O[C@@H]3c4ccccc4C[C@H]23)NC1=O (racemic) [rac-3]
weak activity			CC1=C[C@H](O/C=C2/C(=O)O[C@H]3c4ccccc4C[C@@H]23)NC1=O (racemic) [rac-4]
substantially inactive	inactive	partial agonist	CC1=CC(C2Cc3c(n(C)c4ccccc34)C2=O)NC1=O (racemic) [rac-9]

From paper PMC5913603, “Structure–activity relationships of strigolactones via a novel, quantitative in planta bioassay” (Journal of Experimental Botany, 2018)
